Converted amounts (≈) assume the structure as drawn. Like-named read-outs stand apart in the source and are kept apart here. One block for each compound: values may come before it. Square brackets hold non-standard residues; d marks the D form. Peptide text beside a SMILES is read from it.
Columns and labels:
[1] = Solubility of antibacterial peptides in solution; format: physicochemical
[2] = system: 30 species of Acinetobacter baumannii (A. baumannii); format: cell-based
Method: In addition, the results obtained by measuring the minimum inhibitory concentrations of KSH29, KSH42 and KSH43 against 30 species of Acinetobacter baumannii (A. baumannii) are shown in Table 4 below.
The minimum inhibitory concentrations (MIC) against the 30 species of Acinetobacter baumannii were measured in the following manner.
The strain 1605 was purchased from ATCC (American Type Culture Collection, USA). In addition, the strain 40203 was purchased from the Korean Culture Center of Microorganisms.
The COL^R refers to resistance to colistin, the TGC^R refers to resistance to tigecycline, and the TGC^I refers to tigecycline intermediate strains.

[3] = system: MRAB (A. baumannii) ATCC BAA 1605; format: cell-based, Acinetobacter baumannii
Method in brief: (§1)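 Mid-log cultures grown in CAMHB and diluted to 1× 10^6 cfu/ml in PBS were mixed with an equal volume of peptide in CAMHB (80 µM to 0.63 µM twofold dilutions). MIC taken as the mean of three independent experiments.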

[4] = system: MRPA (P. aeruginosa) CCARM 2180; format: cell-based, Pseudomonas aeruginosa; conditions: CCARM 2180, 18 h
Method in brief: as §1

[5] = system: VRE (E. faecalis) ATCC 51575; format: cell-based, Enterococcus faecalis
Method in brief: as §1

[6] = system: MRSA (S. aureus) KCCM 40510; format: cell-based, Staphylococcus aureus; conditions: KCCM 40510, 18 h
Method in brief: as §1

[7] = against 30 species of Acinetobacter baumannii
[8] = CAMHB, 37° C., 18 hours, average of three experiments

Compound: CC[C@@H](C)[C@@H](NC(=O)[C@@H](Cc1c[nH]c2ccccc12)NC(=O)[C@H](NC(=O)[C@@H](CC(C)C)NC(=O)[C@H](N)Cc1c[nH]c2ccccc12)C(C)C)C(=O)N[C@H](Cc1c[nH]c2ccccc12)C(=O)N[C@H](CCCNC(=N)N)C(=O)N[C@H](CCCNC(=N)N)C(=O)N[C@H](CCCNC(=N)N)C(N)=O [KSH29, wlvwiwrrr] (H-[dW][dL][dV][dW][dI][dW][dR][dR][dR]-NH2; N-terminus assumed)
- solubility at 12 h ([1]; aqueous buffer): ≥ 100 µM
- solubility at 12 h ([1]; plasma or biological fluid): 50 µM (≈ 68.5 µg/mL)
- solubility at 12 h ([1]; water): > 2000 µM
- MIC ([2]; A. baumannii strain 1): 1.25 µM (≈ 1.71 µg/mL)
- MIC ([2]; A. baumannii strain 6 (TGC^I)): 1.25 µM (≈ 1.71 µg/mL)
- MIC ([2]; A. baumannii strain 10): 1.25 µM (≈ 1.71 µg/mL)
- MIC ([2]; A. baumannii strain 14): 1.25 µM (≈ 1.71 µg/mL)
- MIC ([2]; A. baumannii strain 15): 1.25 µM (≈ 1.71 µg/mL)
- MIC ([2]; A. baumannii strain 16): 1.25 µM (≈ 1.71 µg/mL)
- MIC ([2]; A. baumannii strain 19): 1.25 µM (≈ 1.71 µg/mL)
- MIC ([2]; A. baumannii strain 22 (TGC^I)): 1.25 µM (≈ 1.71 µg/mL)
- MIC ([2]; A. baumannii strain 39): 1.25 µM (≈ 1.71 µg/mL)
- MIC ([2]; A. baumannii strain 44): 1.25 µM (≈ 1.71 µg/mL)
- MIC ([2]; A. baumannii strain 66): 1.25 µM (≈ 1.71 µg/mL)
- MIC ([2]; A. baumannii strain 68): 1.25 µM (≈ 1.71 µg/mL)
- MIC ([2]; A. baumannii strain 69): 1.25 µM (≈ 1.71 µg/mL)
- MIC ([2]; A. baumannii strain 71): 1.25 µM (≈ 1.71 µg/mL)
- MIC ([2]; A. baumannii strain 76): 1.25 µM (≈ 1.71 µg/mL)
- MIC ([2]; A. baumannii strain 82): 1.25 µM (≈ 1.71 µg/mL)
- MIC ([2]; A. baumannii strain 89): 1.25 µM (≈ 1.71 µg/mL)
- MIC ([2]; A. baumannii strain 102 (TGC^I)): 1.25 µM (≈ 1.71 µg/mL)
- MIC ([2]; A. baumannii strain 127): 1.25 µM (≈ 1.71 µg/mL)
- MIC ([2]; A. baumannii strain 141 (TGC^R)): 1.25 µM (≈ 1.71 µg/mL)
- MIC ([2]; A. baumannii strain 144): 1.25 µM (≈ 1.71 µg/mL)
- MIC ([2]; A. baumannii strain 147 (TGC^R)): 1.25 µM (≈ 1.71 µg/mL)
- MIC ([2]; A. baumannii strain 152 (TGC^R)): 1.25 µM (≈ 1.71 µg/mL)
- MIC ([2]; A. baumannii strain 10087): 1.25 µM (≈ 1.71 µg/mL)
- MIC ([2]; A. baumannii strain 19606): 1.25 µM (≈ 1.71 µg/mL)
- MIC ([2]; A. baumannii strain 40203 (Korean Culture Center of Microorganisms)): 1.25 µM (≈ 1.71 µg/mL)
- MIC50 [2, 7]: 1.25 µM (≈ 1.71 µg/mL)
- MIC90 [2, 7]: 1.25 µM (≈ 1.71 µg/mL)

Compound: CC[C@@H](C)[C@@H](NC(=O)[C@@H](Cc1c[nH]c2ccccc12)NC(=O)[C@H](NC(=O)[C@@H](CC(C)C)NC(=O)[C@H](N)Cc1c[nH]c2ccccc12)C(C)C)C(=O)N[C@H](Cc1c[nH]c2ccccc12)C(=O)N[C@H](CCC(N)=O)C(=O)N[C@H](CCCNC(=N)N)C(=O)N[C@H](CCCNC(=N)N)C(=O)N[C@H](CCCNC(=N)N)C(N)=O [KSH30, wlvwiwqrrr] (H-[dW][dL][dV][dW][dI][dW][dQ][dR][dR][dR]-NH2; N-terminus assumed)
- solubility at 12 h ([1]; aqueous buffer): ≥ 25 µM
- solubility at 12 h ([1]; plasma or biological fluid): 50 µM (≈ 74.9 µg/mL)
- solubility at 12 h ([1]; water): > 2000 µM
- MIC MRAB (A. baumannii) ATCC BAA 1605 [3, 8]: 1.25 µM (≈ 1.87 µg/mL)
- MIC MRPA (P. aeruginosa) CCARM 2180 [4]: >5 µM

Compound: CC[C@@H](C)[C@@H](NC(=O)[C@@H](Cc1c[nH]c2ccccc12)NC(=O)[C@H](NC(=O)[C@@H](CC(C)C)NC(=O)[C@H](N)Cc1c[nH]c2ccccc12)C(C)C)C(=O)N[C@H](Cc1c[nH]c2ccccc12)C(=O)N[C@H](CCCNC(=N)N)C(=O)N[C@H](CCCNC(=N)N)C(=O)N[C@H](CCC(N)=O)C(=O)N[C@H](CCCNC(=N)N)C(N)=O [KSH31, wlvwiwrrqr] (H-[dW][dL][dV][dW][dI][dW][dR][dR][dQ][dR]-NH2; N-terminus assumed)
- solubility at 12 h ([1]; aqueous buffer): ≥ 100 µM
- solubility at 12 h ([1]; plasma or biological fluid): 25 µM (≈ 37.4 µg/mL)
- solubility at 12 h ([1]; water): > 2000 µM
- MIC MRAB (A. baumannii) ATCC BAA 1605 [3, 8]: 1.25 µM (≈ 1.87 µg/mL)
- MIC VRE (E. faecalis) ATCC 51575 [5, 8]: 1.25 µM (≈ 1.87 µg/mL)
- MIC MRPA (P. aeruginosa) CCARM 2180 [4]: >5 µM

- solubility at 12 h ([1]; aqueous buffer): 25 µM (≈ 30.3 µg/mL)
- solubility at 12 h ([1]; plasma or biological fluid): 50 µM (≈ 60.7 µg/mL)
- solubility at 12 h ([1]; water): > 2000 µM
- MIC MRAB (A. baumannii) ATCC BAA 1605 ([3]; ATCC BAA 1605, 18 h): 1.25 µM (≈ 1.52 µg/mL)
- MIC MRSA (S. aureus) KCCM 40510 [6]: 1.25 µM (≈ 1.52 µg/mL)
- MIC VRE (E. faecalis) ATCC 51575 ([5]; ATCC 51575, 18 h): 1.25 µM (≈ 1.52 µg/mL)
- MIC MRPA (P. aeruginosa) CCARM 2180 [4]: >5 µM
Compound: CC[C@@H](C)[C@@H](NC(=O)[C@@H](Cc1c[nH]c2ccccc12)NC(=O)[C@H](NC(=O)[C@@H](CC(C)C)NC(=O)[C@H](N)Cc1c[nH]c2ccccc12)C(C)C)C(=O)N[C@H](Cc1c[nH]c2ccccc12)C(=O)N[C@H](CCCNC(=N)N)C(=O)N[C@H](CCCNC(=N)N)C(N)=O [KSH32, wlvwiwrr] (H-[dW][dL][dV][dW][dI][dW][dR][dR]-NH2; N-terminus assumed)

- solubility at 12 h ([1]; aqueous buffer): > 200 µM
- solubility at 12 h ([1]; plasma or biological fluid): 100 µM (≈ 148 µg/mL)
- solubility at 12 h ([1]; water): > 2000 µM
- MIC MRAB (A. baumannii) ATCC BAA 1605 ([3]; ATCC BAA 1605, 18 h): 5 µM (≈ 7.42 µg/mL)
- MIC MRSA (S. aureus) KCCM 40510 [6]: 25 µM (≈ 37.1 µg/mL)
- MIC VRE (E. faecalis) ATCC 51575 ([5]; ATCC 51575, 18 h): 2.5 µM (≈ 3.71 µg/mL)
- MIC MRPA (P. aeruginosa) CCARM 2180 [4]: >5 µM
Compound: CC[C@@H](C)[C@@H](NC(=O)[C@@H](Cc1c[nH]c2ccccc12)NC(=O)[C@H](NC(=O)[C@@H](CC(C)C)NC(=O)[C@@H](Cc1c[nH]c2ccccc12)NC(=O)[C@H](N)CC(=O)O)C(C)C)C(=O)N[C@H](Cc1c[nH]c2ccccc12)C(=O)N[C@H](CCCNC(=N)N)C(=O)N[C@H](CCCNC(=N)N)C(=O)N[C@H](CCCNC(=N)N)C(N)=O [KSH36, dwlvwiwrrr] (H-[dD][dW][dL][dV][dW][dI][dW][dR][dR][dR]-NH2; N-terminus assumed)
